Results taken from patent publication US20070049564A1 (Wyeth, priority 2005, published 2007).
≈ marks a conversion by molar mass, not a printed value. Where two headings read alike, the source gives them in different places.

What was measured:
S. aureus GC 1079 = test: MIC, broth microdilution; conditions: Staphylococcus aureus, GC1079, S. aureus GC 1079
S. pneumoniae* GC 4465 = test: MIC, broth microdilution; conditions: Streptococcus pneumoniae, S. pneumoniae* GC 4465
E. coli GC 2272 = test: MIC, broth microdilution; conditions: Escherichia coli, GC2272, E. coli GC 2272
S. typhimurium GC 2172 = test: MIC, broth microdilution; conditions: Salmonella enterica, TYPHIMURIUM, S. typhimurium GC 2172
E. coli GC 2233 = test: MIC, broth microdilution; conditions: Escherichia coli, GC2233, E. coli GC 2233
E. coli GC 2235 = test: MIC, broth microdilution; conditions: Escherichia coli, GC2235, E. coli GC 2235
S. aureus GC 6467 = test: MIC, broth microdilution; conditions: Staphylococcus aureus, GC6467, S. aureus GC 6467
E. coli GC 6465 = test: MIC, broth microdilution; conditions: Escherichia coli, GC6465, E. coli GC 6465
E. coli GC 2203 = test: MIC, broth microdilution; conditions: Escherichia coli, GC2203, E. coli GC 2203
E. coli GC 2236 = test: MIC, broth microdilution; conditions: Escherichia coli, GC2236, E. coli GC 2236
E. faecium GC 4556 = test: MIC, broth microdilution; conditions: Enterococcus faecium, GC4556, E. faecium GC 4556
E. faecalis GC 2267 = test: MIC, broth microdilution; conditions: Enterococcus faecalis, GC2267, E. faecalis GC 2267
E. coli GC 4560 = test: MIC, broth microdilution; conditions: Escherichia coli, GC4560, E. coli GC 4560
E. coli GC 2234 = test: MIC, broth microdilution; conditions: Escherichia coli, GC2234, E. coli GC 2234
E. coli GC 2231 = test: MIC, broth microdilution; conditions: Escherichia coli, GC2231, E. coli GC 2231
Staph. = test: Range of MIC for Staph. strains, including MRSA; conditions: Staphylococcus aureus, MRSA
S. epidermidis GC 4935 = test: MIC, broth microdilution; conditions: Staphylococcus epidermidis, GC4935, S. epidermidis GC 4935
S. aureus GC 1131 = test: MIC, broth microdilution; conditions: Staphylococcus aureus, GC1131, S. aureus GC 1131
E. faecalis GC 4555 = test: MIC, broth microdilution; conditions: Enterococcus faecalis, GC4555, E. faecalis GC 4555
S. aureus GC 6466 = test: MIC, broth microdilution; conditions: Staphylococcus aureus, GC6466, S. aureus GC 6466
[1] = read-out: Range of MIC, Staph (Mouse Serum)
[2] = read-out: Range of MIC, Staph (Water)
[3] = read-out: Range of MIC, Staph. (mouse serum)
[4] = read-out: Range of MIC, Staph. (water)

Q: Which MIC (S. aureus GC 1079; Mouse Serum pre-incubation) does the source give for `CCCN(CC(=O)Nc1cc(N(C)C)c2c(c1O)C(=O)C1=C(O)[C@]3(O)C(=O)C(C(N)=O)=C(O)[C@@H](N(C)C)[C@@H]3C[C@@H]1C2)C(=O)OCOC(=O)c1ccc(C)cc1` [Example 5, ({[(2-{[(5aR,6aS,7S,10aS)-9-(aminocarbonyl)-4,7-bis(dimethylamino)-1,8,10a,11-tetrahydroxy-10,12-dioxo-5,5a,6,6a,7,10,10a,12-octahydrotetracen-2-yl]amino}-2-oxoethyl)(propyl)amino]carbonyl}oxy)methyl 4-methylbenzoate] here?
A: 2 µg/mL (≈ 2.62 µM)

Q: What about the MIC (S. aureus GC 1079; Water pre-incubation) of the same molecule?
A: 2 µg/mL (≈ 2.62 µM)

Q: And the MIC (S. pneumoniae* GC 4465; Mouse Serum pre-incubation)?
A: < 0.06 µg/mL

Q: What about the MIC (S. pneumoniae* GC 4465; Water pre-incubation) of the same molecule?
A: 0.12 µg/mL (≈ 0.157 µM)

Q: What about the MIC (E. coli GC 2272; Mouse Serum pre-incubation) of the same molecule?
A: 1 µg/mL (≈ 1.31 µM)

Q: What about the MIC (E. coli GC 2272; Water pre-incubation) of the same molecule?
A: 32 µg/mL (≈ 41.9 µM)

Q: And the MIC (S. typhimurium GC 2172; Mouse Serum pre-incubation)?
A: 8 µg/mL (≈ 10.5 µM)

Q: What about the MIC (S. typhimurium GC 2172; Water pre-incubation) of the same molecule?
A: > 64 µg/mL

Q: What about the MIC (E. coli GC 2233; Mouse Serum pre-incubation) of the same molecule?
A: 2 µg/mL (≈ 2.62 µM)

Q: What about the MIC (E. coli GC 2233; Water pre-incubation) of the same molecule?
A: 32 µg/mL (≈ 41.9 µM)

Q: And the MIC (E. coli GC 2235; Mouse Serum pre-incubation)?
A: 1 µg/mL (≈ 1.31 µM)

Q: And the MIC (E. coli GC 2235; Water pre-incubation)?
A: 16 µg/mL (≈ 20.9 µM)

Q: And the MIC (S. aureus GC 6467; Mouse Serum pre-incubation)?
A: 2 µg/mL (≈ 2.62 µM)

Q: And the MIC (S. aureus GC 6467; Water pre-incubation)?
A: 4 µg/mL (≈ 5.24 µM)

Q: What about the MIC (E. coli GC 6465; Mouse Serum pre-incubation) of the same molecule?
A: 8 µg/mL (≈ 10.5 µM)

Q: What about the MIC (E. coli GC 6465; Water pre-incubation) of the same molecule?
A: > 64 µg/mL

Q: And the MIC (E. coli GC 2203; Mouse Serum pre-incubation)?
A: 1 µg/mL (≈ 1.31 µM)

Q: What about the MIC (E. coli GC 2203; Water pre-incubation) of the same molecule?
A: 32 µg/mL (≈ 41.9 µM)

Q: What about the MIC (E. coli GC 2236; Mouse Serum pre-incubation) of the same molecule?
A: 2 µg/mL (≈ 2.62 µM)

Q: And the MIC (E. coli GC 2236; Water pre-incubation)?
A: 16 µg/mL (≈ 20.9 µM)

Q: What about the MIC (E. faecium GC 4556; Mouse Serum pre-incubation) of the same molecule?
A: 1 µg/mL (≈ 1.31 µM)

Q: And the MIC (E. faecium GC 4556; Water pre-incubation)?
A: 2 µg/mL (≈ 2.62 µM)

Q: And the MIC (E. faecalis GC 2267; Mouse Serum pre-incubation)?
A: 2 µg/mL (≈ 2.62 µM)

Q: What about the MIC (E. faecalis GC 2267; Water pre-incubation) of the same molecule?
A: 4 µg/mL (≈ 5.24 µM)

Q: What about the MIC (E. coli GC 4560; Mouse Serum pre-incubation) of the same molecule?
A: 0.5 µg/mL (≈ 0.655 µM)

Q: What about the MIC (E. coli GC 4560; Water pre-incubation) of the same molecule?
A: 4 µg/mL (≈ 5.24 µM)

Q: What about the MIC (E. coli GC 2234; Mouse Serum pre-incubation) of the same molecule?
A: 1 µg/mL (≈ 1.31 µM)

Q: What about the MIC (E. coli GC 2234; Water pre-incubation) of the same molecule?
A: 32 µg/mL (≈ 41.9 µM)

Q: And the MIC (E. coli GC 2231; Mouse Serum pre-incubation)?
A: 2 µg/mL (≈ 2.62 µM)

Q: And the MIC (E. coli GC 2231; Water pre-incubation)?
A: 64 µg/mL (≈ 83.8 µM)

Q: And the MIC (Staph.; [1])?
A: 0.25 to 2 µg/mL (≈ 0.327 to 2.62 µM)

Q: And the MIC (Staph.; [2])?
A: 0.5 to 4 µg/mL (≈ 0.655 to 5.24 µM)

Q: And the MIC (Staph.; [3])?
A: 0.25 to 2 µg/mL (≈ 0.327 to 2.62 µM)

Q: What about the MIC (Staph.; [4]) of the same molecule?
A: 0.5 to 4 µg/mL (≈ 0.655 to 5.24 µM)

Q: And the MIC (S. epidermidis GC 4935; Mouse Serum pre-incubation)?
A: 1 µg/mL (≈ 1.31 µM)

Q: And the MIC (S. epidermidis GC 4935; Water pre-incubation)?
A: 2 µg/mL (≈ 2.62 µM)

Q: And the MIC (S. aureus GC 1131; Mouse Serum pre-incubation)?
A: 0.5 µg/mL (≈ 0.655 µM)

Q: What about the MIC (S. aureus GC 1131; Water pre-incubation) of the same molecule?
A: 1 µg/mL (≈ 1.31 µM)

Q: And the MIC (E. faecalis GC 4555; Mouse Serum pre-incubation)?
A: 1 µg/mL (≈ 1.31 µM)

Q: What about the MIC (E. faecalis GC 4555; Water pre-incubation) of the same molecule?
A: 4 µg/mL (≈ 5.24 µM)

Q: What about the MIC (S. aureus GC 6466; Mouse Serum pre-incubation) of the same molecule?
A: 0.25 µg/mL (≈ 0.327 µM)

Q: What about the MIC (S. aureus GC 6466; Water pre-incubation) of the same molecule?
A: 0.5 µg/mL (≈ 0.655 µM)

Q: For `CCCN(CC(=O)Nc1cc(N(C)C)c2c(c1O)C(=O)C1=C(O)[C@]3(O)C(=O)C(C(N)=O)=C(O)[C@@H](N(C)C)[C@@H]3C[C@@H]1C2)C(=O)OCOC(=O)c1ccc(OC)cc1` [Example 6, ({[(2-{[(5aR,6aS,7S,10aS)-9-(aminocarbonyl)-4,7-bis(dimethylamino)-1,8,10a,11-tetrahydroxy-10,12-dioxo-5,5a,6,6a,7,10,10a,12-octahydrotetracen-2-yl]amino}-2-oxoethyl)(propyl)amino]carbonyl}oxy)methyl 4-methoxybenzoate], which MIC (S. aureus GC 1079; Mouse Serum pre-incubation) is on record?
A: 2 µg/mL (≈ 2.56 µM)

Q: What about the MIC (S. aureus GC 1079; Water pre-incubation) of the same molecule?
A: 4 µg/mL (≈ 5.13 µM)

Q: And the MIC (S. pneumoniae* GC 4465; Mouse Serum pre-incubation)?
A: 0.12 µg/mL (≈ 0.154 µM)

Q: And the MIC (S. pneumoniae* GC 4465; Water pre-incubation)?
A: 0.25 µg/mL (≈ 0.321 µM)

Q: And the MIC (E. coli GC 2272; Mouse Serum pre-incubation)?
A: 1 µg/mL (≈ 1.28 µM)

Q: What about the MIC (E. coli GC 2272; Water pre-incubation) of the same molecule?
A: 16 µg/mL (≈ 20.5 µM)

Q: And the MIC (S. typhimurium GC 2172; Mouse Serum pre-incubation)?
A: 8 µg/mL (≈ 10.3 µM)

Q: What about the MIC (S. typhimurium GC 2172; Water pre-incubation) of the same molecule?
A: > 64 µg/mL

Q: What about the MIC (E. coli GC 2233; Mouse Serum pre-incubation) of the same molecule?
A: 2 µg/mL (≈ 2.56 µM)

Q: And the MIC (E. coli GC 2233; Water pre-incubation)?
A: 16 µg/mL (≈ 20.5 µM)

Q: What about the MIC (E. coli GC 2235; Mouse Serum pre-incubation) of the same molecule?
A: 1 µg/mL (≈ 1.28 µM)

Q: And the MIC (E. coli GC 2235; Water pre-incubation)?
A: 8 µg/mL (≈ 10.3 µM)

Q: And the MIC (S. aureus GC 6467; Mouse Serum pre-incubation)?
A: 2 µg/mL (≈ 2.56 µM)

Q: And the MIC (S. aureus GC 6467; Water pre-incubation)?
A: 4 µg/mL (≈ 5.13 µM)

Q: What about the MIC (E. coli GC 6465; Mouse Serum pre-incubation) of the same molecule?
A: 4 µg/mL (≈ 5.13 µM)

Q: What about the MIC (E. coli GC 6465; Water pre-incubation) of the same molecule?
A: > 64 µg/mL

Q: What about the MIC (E. coli GC 2203; Mouse Serum pre-incubation) of the same molecule?
A: 2 µg/mL (≈ 2.56 µM)

Q: And the MIC (E. coli GC 2203; Water pre-incubation)?
A: 16 µg/mL (≈ 20.5 µM)

Q: And the MIC (E. coli GC 2236; Mouse Serum pre-incubation)?
A: 2 µg/mL (≈ 2.56 µM)

Q: What about the MIC (E. coli GC 2236; Water pre-incubation) of the same molecule?
A: 8 µg/mL (≈ 10.3 µM)

Q: And the MIC (E. faecium GC 4556; Mouse Serum pre-incubation)?
A: 1 µg/mL (≈ 1.28 µM)

Q: What about the MIC (E. faecium GC 4556; Water pre-incubation) of the same molecule?
A: 2 µg/mL (≈ 2.56 µM)

Q: And the MIC (E. faecalis GC 2267; Mouse Serum pre-incubation)?
A: 1 µg/mL (≈ 1.28 µM)

Q: And the MIC (E. faecalis GC 2267; Water pre-incubation)?
A: 4 µg/mL (≈ 5.13 µM)

Q: And the MIC (E. coli GC 4560; Mouse Serum pre-incubation)?
A: 0.25 µg/mL (≈ 0.321 µM)

Q: And the MIC (E. coli GC 4560; Water pre-incubation)?
A: 2 µg/mL (≈ 2.56 µM)

Q: And the MIC (E. coli GC 2234; Mouse Serum pre-incubation)?
A: 1 µg/mL (≈ 1.28 µM)

Q: What about the MIC (E. coli GC 2234; Water pre-incubation) of the same molecule?
A: 16 µg/mL (≈ 20.5 µM)

Q: What about the MIC (E. coli GC 2231; Mouse Serum pre-incubation) of the same molecule?
A: 2 µg/mL (≈ 2.56 µM)

Q: What about the MIC (E. coli GC 2231; Water pre-incubation) of the same molecule?
A: 64 µg/mL (≈ 82.1 µM)

Q: What about the MIC (Staph.; [1]) of the same molecule?
A: 0.5 to 2 µg/mL (≈ 0.641 to 2.56 µM)

Q: What about the MIC (Staph.; [2]) of the same molecule?
A: 1 to 4 µg/mL (≈ 1.28 to 5.13 µM)

Q: What about the MIC (Staph.; [3]) of the same molecule?
A: 0.5 to 2 µg/mL (≈ 0.641 to 2.56 µM)

Q: And the MIC (Staph.; [4])?
A: 1 to 4 µg/mL (≈ 1.28 to 5.13 µM)

Q: And the MIC (S. epidermidis GC 4935; Mouse Serum pre-incubation)?
A: 1 µg/mL (≈ 1.28 µM)

Q: And the MIC (S. epidermidis GC 4935; Water pre-incubation)?
A: 4 µg/mL (≈ 5.13 µM)

Q: And the MIC (S. aureus GC 1131; Mouse Serum pre-incubation)?
A: 0.5 µg/mL (≈ 0.641 µM)

Q: What about the MIC (S. aureus GC 1131; Water pre-incubation) of the same molecule?
A: 1 µg/mL (≈ 1.28 µM)

Q: And the MIC (E. faecalis GC 4555; Mouse Serum pre-incubation)?
A: 1 µg/mL (≈ 1.28 µM)

Q: And the MIC (E. faecalis GC 4555; Water pre-incubation)?
A: 4 µg/mL (≈ 5.13 µM)

Q: And the MIC (S. aureus GC 6466; Mouse Serum pre-incubation)?
A: 0.25 µg/mL (≈ 0.321 µM)

Q: And the MIC (S. aureus GC 6466; Water pre-incubation)?
A: 1 µg/mL (≈ 1.28 µM)
